The values that follow come from PMC3568510 (Biochemistry, 2013).

pKi: −log10 of the molar value.

The target of the assay is CC3396. Format: biochemical, Caulobacter vibrioides (Caulobacter crescentus).

In general, pKi refers to the Ki on a negative log10 scale, so that one unit is a factor of ten. A lower pKi goes with a large Ki. As for `Nc1nc2c(ncn2[C@@H]2O[C@@H]3CO[P@@](O)(=S)O[C@H]4[C@@H](O)[C@H](n5cnc6c(=O)[nH]c(N)nc65)O[C@@H]4CO[P@](O)(=S)O[C@H]3[C@H]2O)c(=O)[nH]1` [c-(RPSP)-di-Gps], the pKi was ~6.09.
The result for `Nc1nc2c(ncn2[C@@H]2O[C@@H]3CO[P@@](O)(=S)O[C@H]4[C@@H](O)[C@H](n5cnc6c(=O)[nH]c(N)nc65)O[C@@H]4CO[P@@](O)(=S)O[C@H]3[C@H]2O)c(=O)[nH]1` [c-(RPRP)-di-Gps] reads ~6.32.
